The values below are quoted from earlier work in publication PMC3544362 (Journal of medicinal chemistry, 2012).

For data set [1] the following is noted: rat, 60 min p.i., ref [32].
The conditions of data set [2]: presumably rapid in vivo hydrolysis, ref [31]–[32].
The conditions of data set [3]: Sprague-Dawley rats, 5 min p.i.; ref [12].
The mark [4] stands for this setting: Wistar rats, 60 min p.i., ref [16].

Where two headings read alike, the source gives them in different places.

For the compound `CCN(CC)c1ccc2c(-c3ccccc3C(=O)OCC[18F])c3ccc(=[N+](CC)CC)cc-3oc2c1` [[^18F]3, 2-[^18F]fluoroethyl rhodamine B], the Heart/blood in data set [1] (tissue ratio) is listed as 25.8. Also, in data set [1], the Blood was 0.08 ± 0.03 %ID/g, the Bone is recorded as 0.45 ± 0.08 %ID/g, the Gut is given as 2.40 ± 0.53 %ID/g and the Heart is listed as 2.06 ± 0.61 %ID/g. Besides, in data set [1], the Kidney is 8.31 ± 0.81 %ID/g, the Liver is 0.89 ± 0.07 %ID/g, the Lung is 1.78 ± 0.65 %ID/g and the Muscle is on record as 0.16 ± 0.04 %ID/g. In data set [1], the Skin is listed as 0.20 ± 0.02 %ID/g and the Spleen was 5.63 ± 0.78 %ID/g. The “accumulation in mouse myocardium” value in data set [2] is recorded as “did not accumulate in mouse myocardium”.

`CC(C)(C)n1ncc(OCc2ccc(COCC[18F])cc2)c(Cl)c1=O` [Flurpiridaz F 18]: the heart uptake is 3.3 %ID/g (Sprague-Dawley rats, 60 min p.i., ref [17], [46]) and 2.06 %ID/g under setting [4]. Moreover, the liver concentration is 0.99 %ID/g (Wistar rats, 10 min p.i., ref [16]) and 0.38 %ID/g under setting [4].

As to `Fc1ccc([P+](c2ccccc2)(c2ccccc2)c2ccccc2)cc1` [^18F-FTPP], in data set [3], the heart uptake is 1.64 %ID/g and the heart-to-blood ratio is 11.
